pIC50: −log10 of the molar value. Like-named read-outs stand apart in the source and are kept apart here.

Results on one compound are retold here after patent publication US20150017673A1, “COMPOSITIONS AND METHODS FOR DRUG-SENSITIZATION OR INHIBITION OF A CANCER CELL” (priority 2012, published 2015).

The test system of data set [1] is human ovarian cancer cell line SK-OV-3. Put plainly: SK-OV-3 xenograft efficacy study in SCID mice. In kind it is in vivo. Conditions: after 19 days treatment; DOX only 3.3 mg/kg i.v. weekly. The procedure: In a fifth efficacy study, we generated xenografts of the human ovarian cancer cell line SK-OV-3, a cell line considered doxorubicin-resistant, by bilateral subcutaneous (s.c.) injection of 1×10^7 tumor cells to establish localized tumors in 6-8 week old female SCID mice. Using rifabutin co-administered with DOX, in vivo efficacy was assessed. […] Cycles of Dox or Dox+rifabutin were given once a week for 4 cycles. This cyclical dosing scheme of mouse models has precedent in the literature and is intended to mimic the cycles of DOXIL® (Centocor Ortho Biotech Products, LP, Raritan, N.J.) given in the clinic. Rifabutin was administered on the day of each DOX treatment and by gavage. Mouse body weight and tumor size were monitored.

For data set [2], the system named is G3 CHOP-resistant NHL cells. Conditions: fourth study; doxorubicin only group. The procedure:
In a first efficacy study, 6-8 week old female SCID mice (7 mice per treatment arm) were injected subcutaneously on both flanks with 1×10^7 G3 CHOP-resistant NHL cells. Once palpable tumors (about […] size) appeared, therapies (CHOP or CHOP+rifabutin) were started. CHOP was administered at the maximum tolerated dose (cyclophosphamide, 40 mg/kg i.v.; doxorubicin, 3.3 mg/kg i.v.; vincristine, 0.5 mg/kg i.v.; and prednisone, 0.2 mg/kg orally daily for 5 d) weekly for 3 weeks. Rifabutin in an amount of 100 mg/kg was administered on the day of each CHOP treatment and 24-hours later by gavage. Mouse body weight and tumor size were monitored every two days and tumor size measured by caliper. The tumor volume formula (L*W*W)/2 was used to calculate tumor mass.
A second efficacy study was conducted where mice were treated before the appearance of palpable tumors. In that experiment, one week after transplantation of CHOP-resistant G3 cells, one group (7 mice) was treated with CHOP-only and a second group (8 mice) was treated with CHOP+rifabutin.
A third study was conducted in which mice injected with CHOP-resistant G3 cells received reduced dosages of CHOP in combination with 33 mg/kg rifabutin. CHOP+rifabutin was administered weekly beginning one week post-inoculation. Control mice were given no CHOP or rifabutin.
SCID mice were injected with CHOP-resistant G3 cells in the same manner as the first efficacy study above. Treatments began 2 weeks post-inoculation and were administered twice weekly.

For data set [3], the system named is multi-drug resistant ovarian cancer cell line NCI/ADR-RES. Description: Cell growth assay on NCI/ADR-RES cells. It is filed as cell-based. To be noted: ADR-RES.
The conditions of data set [4]: after administration; cited from earlier work.
The subject of data set [5] is T lymphoblastoid leukemia MOLT-4. Put plainly: Cell growth assay on MOLT-4 cells. In kind it is cell-based. The procedure: Compositions were tested on CHOP-resistant G3 NHL cells that had been cultivated in RPMI medium for five days. Prior to assay, the cells were counted by haemocytometer and cell concentration standardized to 625,000 cells/ml. Test drugs were solubilized in 100% DMSO and then diluted to final assay concentration with 0.1M phosphate buffered saline (PBS) and a final DMSO concentration of 0.5%. Cells were added to assay plates containing the test drugs (rifabutin+148 ng/ml, 74 ng/ml, 37 ng/ml, or 0 ng/ml doxorubicin) and allowed to incubate for 96 hours at 37° C. and 5% CO2. The metabolic dye rezasurin was added to the wells of the assay plate at a final concentration of 20 μg/ml and the plates were incubated for an additional 24 hours. The plates were then read in a BMG Polarstar plate reader at wavelength (573-605) and the data plotted as OD versus increasing dilutions (i.e. decreasing total amounts) of rifabutin derivative concentration.
Additional cell lines used include: ovarian cancer OVCAR-8, T lymphoblastoid leukemia MOLT-4, dexamethasone-resistant multiple myeloma MM.1R, myeloid leukemia cells HL-60, osteosarcoma cells U-2 OS, and myeloma RPMI 8226.

A further data set deals with lymphoma cell line G3. Description: Cell growth assay (resazurin fluorescence) on CHOP-resistant G3 NHL cells. It is filed as cell-based, human. In a few lines:
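CHOP-resistant G3 NHL cells grown five days in RPMI medium were counted by haemocytometer and set to 625,000 cells/ml. They were then added to plates holding test drug, first dissolved in 100% DMSO and diluted in 0.1M PBS to 0.5% final DMSO. Plates incubated 96 hours at 37° C. and 5% CO2. Resazurin at 20 μg/ml was added for a further 24 hours, and plates were read on a BMG Polarstar at 573-605.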
Background: Alamar Blue is a resazurin reagent that responds to reducing activity.

Data set [6] has as its system CHOP-sensitive NHL cell line CRL2631. Description: Cell growth assay (resazurin) on CHOP-sensitive CRL2631 NHL cells. To be noted: CRL2631. In kind it is cell-based, human.
The mark [7] stands for this setting: Homo sapiens, therapeutic drug alone, read-out: IC50.
[8] abbreviates: Homo sapiens, therapeutic drug with Rifabutin, read-out: IC50 (μM) with Rifabutin.

In data set [1], `COc1cccc2c1C(=O)c1c(O)c3c(c(O)c1C2=O)C[C@@](O)(C(=O)CO)C[C@@H]3O[C@H]1C[C@H](N)[C@H](O)[C@H](C)O1` [Doxorubicin, doxorubicin] showed an average tumor volume of 587 mm^3. In addition, the mean lifespan in data set [2] was 34.6. Also, the median lifespan in data set [2] turned out to be 33. For the same compound, in data set [2], the “times as likely to die before those treated with doxorubicin+RTI-81” value came to 10.37 times. The pIC50 – broadly, the IC50 on a negative log10 scale, so that one unit is a factor of ten – in data set [3] (Homo sapiens, NCI/ADR-RES, therapeutic drug alone, read-out: IC50) was < 4.49; in data set [5] (setting [7]), 7.52; in the data set with lymphoma cell line G3 (Homo sapiens, analog alone, lymphoma cell line G3, read-out: IC50), 5.63; in data set [6] (setting [7]), 6.46. The IC50 (usually the concentration that gives 50% inhibition) came out at 6.59 µM in data set [3] (Homo sapiens, NCI/ADR-RES, therapeutic drug with Rifabutin, read-out: IC50 (μM) with Rifabutin); 0.01 µM in data set [5] (setting [8]); 0.25 µM with lymphoma cell line G3 (Homo sapiens, therapeutic drug with Rifabutin, G3, read-out: IC50 (μM) with Rifabutin); 0.12 µM in data set [6] (setting [8]). In addition, the “Fold increase in potency” value in data set [3] (with vs without Rifabutin) was >4.9 fold; in data set [5] (with vs without Rifabutin), 3 fold; in the data set on lymphoma cell line G3 (with vs without Rifabutin, G3) it was 9.4 fold; in data set [6] (with vs without Rifabutin), 2.9 fold. In data set [4], the “time of maximal tissue absorption” value was 48 h.
